Assay results: PubChem BioAssay AID1919016 (Molecular Pharmacology Branch, DTP, NCI, 2023)

Test system: NCI-H196 complex spheroid growth, percent test/control
Assay: Anticancer human tumor NCI-H196 cell line growth inhibition [AhR];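 note: seven days of drug exposure starting three days after plating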;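 for viability, T/C: 100% = DMSO vehicle control wells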
Settings: for IC50: curve of first compound; for viability, T/C: stronger effect = lower value
Procedure, shortened: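 Complex tumor spheroids co-cultured with HUVEC and human MSC stroma; AhR antagonists tested in combination with standard-of-care and investigational agents. Top concentration at or near clinical Cmax (else 10 microM), half-log dilutions; growth expressed as percent test/control.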

[1] = second compound 0.1 µM, first compound 0.0316 µM
[2] = second compound 0.1 µM, first compound 0.1 µM
[3] = second compound 0.1 µM, first compound 0.316 µM
[4] = second compound 0.1 µM, first compound 1 µM
[5] = second compound 0.1 µM, first compound 3.16 µM
[6] = second compound 0.1 µM, first compound 10 µM
[7] = second compound 0.316 µM, first compound 0.0316 µM
[8] = second compound 0.316 µM, first compound 0.1 µM
[9] = second compound 0.316 µM, first compound 0.316 µM
[10] = second compound 0.316 µM, first compound 1 µM
[11] = second compound 0.316 µM, first compound 3.16 µM
[12] = second compound 0.316 µM, first compound 10 µM
[13] = second compound 1 µM, first compound 0.0316 µM
[14] = second compound 1 µM, first compound 0.1 µM
[15] = second compound 1 µM, first compound 0.316 µM
[16] = second compound 1 µM, first compound 1 µM
[17] = second compound 1 µM, first compound 3.16 µM
[18] = second compound 1 µM, first compound 10 µM
[19] = second compound 3.16 µM, first compound 0.0316 µM
[20] = second compound 3.16 µM, first compound 0.1 µM
[21] = second compound 3.16 µM, first compound 0.316 µM
[22] = second compound 3.16 µM, first compound 1 µM
[23] = second compound 3.16 µM, first compound 3.16 µM
[24] = second compound 3.16 µM, first compound 10 µM
[25] = second compound 10 µM, first compound 0.0316 µM
[26] = second compound 10 µM, first compound 0.1 µM
[27] = second compound 10 µM, first compound 0.316 µM
[28] = second compound 10 µM, first compound 1 µM
[29] = second compound 10 µM, first compound 3.16 µM
[30] = second compound 10 µM, first compound 10 µM

| SMILES | IC50 (second compound 0.1 µM) | IC50 (second compound 0.316 µM) | IC50 (second compound 1 µM) | IC50 (second compound 3.16 µM) | IC50 (second compound 10 µM) | viability, T/C [1] | viability, T/C [2] | viability, T/C [3] | viability, T/C [4] | viability, T/C [5] | viability, T/C [6] | viability, T/C [7] | viability, T/C [8] | viability, T/C [9] | viability, T/C [10] | viability, T/C [11] | viability, T/C [12] | viability, T/C [13] | viability, T/C [14] | viability, T/C [15] | also measured |
| --- | --- | --- | --- | --- | --- | --- | --- | --- | --- | --- | --- | --- | --- | --- | --- | --- | --- | --- | --- | --- | --- |
| Nc1ccccc1NC(=O)c1ccc(CNC(=O)OCc2cccnc2)cc1 + Cc1ccccc1N=Nc1ccc(NC(=O)c2ccnn2C)c(C)c1 | 787 nM | 856 nM | 992 nM | 765 nM | 1200 nM | 88% | 78.3% | 71.9% | 44.8% | 15% | 0.96% | 85% | 83.9% | 73.3% | 44.9% | 18.5% | 1% | 85.8% | 89.8% | 74.9% | viability, T/C [16]: 48.6%; viability, T/C [17]: 20.7%; viability, T/C [18]: 1.92%; viability, T/C [19]: 91.9%; viability, T/C [20]: 80.8%; viability, T/C [21]: 70.5%; viability, T/C [22]: 44%; viability, T/C [23]: 18.5%; viability, T/C [24]: 1.99%; viability, T/C [25]: 88.8%; viability, T/C [26]: 94.7%; viability, T/C [27]: 72.7%; viability, T/C [28]: 55.2%; viability, T/C [29]: 26.5%; viability, T/C [30]: 3.32% |
| CC1(C)CCC(CN2CCN(c3ccc(C(=O)NS(=O)(=O)c4ccc(NCC5CCOCC5)c([N+](=O)[O-])c4)c(Oc4cnc5[nH]ccc5c4)c3)CC2)=C(c2ccc(Cl)cc2)C1 + Cc1cncc(-c2nc(NCCc3c[nH]c4ccccc34)c3ncn(C(C)C)c3n2)c1 | > 10000 nM | > 10000 nM | > 10000 nM | > 10000 nM | > 10000 nM | 98.3% | 97.8% | 89.4% | 98.6% | 96.5% | 107% | 106% | 96% | 95.7% | 93.1% | 105% | 108% | 91.7% | 101% | 108% | viability, T/C [16]: 97.1%; viability, T/C [17]: 103%; viability, T/C [18]: 105%; viability, T/C [19]: 115%; viability, T/C [20]: 105%; viability, T/C [21]: 105%; viability, T/C [22]: 108%; viability, T/C [23]: 95%; viability, T/C [24]: 104%; viability, T/C [25]: 87.8%; viability, T/C [26]: 97.9%; viability, T/C [27]: 107%; viability, T/C [28]: 118%; viability, T/C [29]: 105%; viability, T/C [30]: 101% |
